pIC50: −log10 of the molar value.
How the values were obtained:
[1] = system: AGS cells; assay: Kinetic cell viability with AGS cells (RealTime Glo MT); type: cell-based, human
Method: Approximately 50,000 AGS cells were seeded per well of a 96-well plate in media containing NanoLuc Luciferase and MT Cell Viability Substrate provided on the RealTime Glo MT Cell Viability Assay Kit from PROMEGA. Four hours after plating, cells were treated with DMSO alone (no drug treatment) or decreasing concentrations of a compound of the disclosure to achieve final concentrations of 20, 10, 5, and 2.5 μM. Luminescence Units (RLU) were measured every 16-20 hours using a SynergyHTX plate reader with a 30 msec integration (see FIG. 1).
Approximately 50,000 AGS cells were seeded per well of a 96-well plate in media containing NanoLuc Luciferase and MT Cell Viability Substrate provided on the RealTime Glo MT Cell Viability Assay Kit from PROMEGA. Four hours after plating, cells were treated with DMSO alone (no drug treatment) or decreasing concentrations of compound I-1 to achieve final concentrations of 20, 10, 5, and 2.5 μM. Luminescence Units (RLU) were measured every 16-20 hrs using a SynergyHTX plate reader with a 30 msec integration.
AGS gastric cancer cells were treated with either DMSO alone (no drug treatment) or various concentrations of compound I-1 (including 2.5 µM, 5 µM, 10 µM, and 20 µM) for 4 days. Cell health and replication were measured using REALTIME-GLO MT Cell Viability Assay, which provided a luminescence readout as a measurement of cell number and health.

[2] = system: SW620; assay: Growth inhibition of additional cancer cell lines; type: cell-based; conditions: Homo sapiens, SW-620; SW620, Colon; 50% inhibition of growth
Excerpt: (§1) We tested the ability of compound I-1 to inhibit the growth of 11 additional cell lines, derived from a variety of different types of human cancer.

[3] = system: SR; assay: Growth inhibition of additional cancer cell lines; type: cell-based; conditions: Homo sapiens, Heme (large cell immunoblastic lymphoma-unknown B or T cell origin), 50% inhibition of growth
Excerpt: as §1

[4] = system: NALM-6; assay: Growth inhibition of additional cancer cell lines; type: cell-based; conditions: Homo sapiens; NALM-6, Heme (B-cell precursor leukemia, ALL); 50% inhibition of growth
Excerpt: as §1

[5] = system: Ramos (RA 1); assay: Growth inhibition of additional cancer cell lines; type: cell-based; conditions: Homo sapiens, Hematopoietic-Burkitt's B-cell lymphoma, 50% inhibition of growth
Excerpt: as §1

[6] = system: NCI-H520; assay: Growth inhibition of additional cancer cell lines; type: cell-based; conditions: Homo sapiens; NCI-H520, NSCLC; 50% inhibition of growth
Excerpt: as §1

[7] = system: Raji; assay: Growth inhibition of additional cancer cell lines; type: cell-based; conditions: Homo sapiens, Heme (Burkitt's lymphoma), 50% inhibition of growth
Excerpt: as §1

[8] = system: Thp1; assay: Growth inhibition of additional cancer cell lines; type: cell-based; conditions: Homo sapiens, THP-1; Thp1, Heme (acute monocytic leukemia); 50% inhibition of growth
Excerpt: as §1

[9] = system: SU-DHL-10; assay: Growth inhibition of additional cancer cell lines; type: cell-based; conditions: Homo sapiens, SU-DHL10; SU-DHL-10, Hematopoietic-large B-cell lymphoma; 50% inhibition of growth
Excerpt: as §1

[10] = system: RL95-2; assay: Growth inhibition of additional cancer cell lines; type: cell-based; conditions: Homo sapiens; RL95-2, Uterus/endometrium; 50% inhibition of growth
Excerpt: as §1

[11] = system: HepG2; assay: Growth inhibition of additional cancer cell lines; type: cell-based; conditions: Homo sapiens; HepG2, Liver; 50% inhibition of growth
Excerpt: as §1

[12] = system: MM.1R; assay: Growth inhibition of additional cancer cell lines; type: cell-based; conditions: Homo sapiens, Hematopoietic-B-cell myeloma, 50% inhibition of growth
Excerpt: as §1

[13] = system: nanog; assay: RT-qPCR of nanog RNA in AGS cells; type: cell-based, human; conditions: 10 μM, 4 days, FIG. 3
Method: (§2) Approximately 2.5×10^5 AGS cells were treated for 4 days with DMSO alone (no drug treatment) or 10 μM compound I-1 in DMSO. Cells were lysed and RNA was extracted using Zymo's Quick RNA-Microprep following manufacturer instructions. 100 ng of RNA were reverse transcribed using MuLV reverse transcriptase (New England Biolabs, USA). qPCR was performed using 2 ul of cDNA and Luna Universal qPCR Master Mix from NEB in a Stratagene Mx3005P.
AGS gastric cancer cells were treated with either DMSO alone (no drug treatment) or 10 µM of compound I-1 for 4 days. RNA was isolated and nanog RNA levels were measured by RT-qPCR.

[14] = system: oct4; assay: RT-qPCR of oct4 RNA in AGS cells; type: cell-based, human; conditions: 10 μM, 4 days, FIG. 2
Method: as §2
AGS gastric cancer cells were treated with either DMSO alone (no drug treatment) or compound I-1 at […] for 4 days. RNA was isolated and oct4 RNA levels were measured by RT-qPCR.

[15] = system: NCI-H69; assay: Growth inhibition of cancer cell lines; type: cell-based; conditions: Homo sapiens; NCI-H69, small cell lung cancer; 50% inhibition of growth
Excerpt: (§3) We tested the ability of compound I-1 to inhibit the growth of 12 additional cell lines, derived from a variety of different types of human cancer.

[16] = system: MCF-7; assay: Growth inhibition of cancer cell lines; type: cell-based; conditions: Homo sapiens, MCF7; MCF-7, breast cancer; 50% inhibition of growth
Excerpt: as §3

[17] = system: CFPAC-1; assay: Growth inhibition of cancer cell lines; type: cell-based; conditions: Homo sapiens; CFPAC-1, pancreatic adenocarcinoma; 50% inhibition of growth
Excerpt: as §3

[18] = system: UACC-62; assay: Growth inhibition of cancer cell lines; type: cell-based; conditions: Homo sapiens; UACC-62, melanoma; 50% inhibition of growth
Excerpt: as §3

[19] = system: PC-3; assay: Growth inhibition of cancer cell lines; type: cell-based; conditions: Homo sapiens; PC-3, prostate adenocarcinoma; 50% inhibition of growth
Excerpt: as §3

[20] = system: A549; assay: Growth inhibition of cancer cell lines; type: cell-based; conditions: Homo sapiens; A549, lung adenocarcinoma; 50% inhibition of growth
Excerpt: as §3

[21] = Pharmacokinetic profile after oral gavage in mice; type: in vivo; conditions: male, CD1, mouse, single PO 100 mg/kg, plasma over 24 hours
Method: The pharmacokinetic profile of compound I-1 was determined after oral gavage of 100 mg/kg in male CD1 mice (n=3), using freshly prepared formulations. Approximately 0.025 mL of blood were collected from the dorsal metatarsal vein at 15 min, 30 min, and 1, 2, 4, 6, 8, and 24 hr post dosing. Plasma concentrations of the drug were analyzed by LC/MS/MS method.
Following a single PO (oral) injection in mice at 100 mg/kg, the concentration of compound I-1 was measured in the plasma over 24 hours. The half life was approximately 6 hours.

CCC(=O)N1CCc2cc(-c3ccc(C(=O)NCc4cccnc4)cc3)ccc21 [Compound I-1]
growth of gastric cancer cells ([1]; AGS cells, 2.5-20 μM, 4 days, FIG. 5): inhibited growth | populations of embryonic-like gastric cell populations in gastric cancer ([1]; AGS cells, 20, 10, 5 and 2.5 μM, FIG. 1): depleted | pIC50 [2]: 5.55 | pIC50 [3]: 6.31 | pIC50 [4]: 6.17 | pIC50 [5]: 5.47 | pIC50 [6]: 5.44 | pIC50 [7]: 5.60 | pIC50 [8]: 5.29 | pIC50 [9]: 5.58 | pIC50 [10]: 5.60 | pIC50 [11]: 5.40 | pIC50 [12]: 5.26 | nanog expression in gastric cancer cells [13]: decreased | oct4 expression in gastric cancer cells [14]: decreased | pIC50 [15]: 5.82 | pIC50 [16]: 5.22 | pIC50 [17]: 5.08 | pIC50 [18]: < 5.00 | pIC50 [19]: 5.26 | pIC50 [20]: < 5.00 | half-life [21]: ~6 h

— patent US12522587B2, “Cancer treatments targeting cancer stem cells” (Remedy Plan, Inc., priority 2018, dated 2026)
